Converted amounts (≈) assume the structure as drawn. The source made the active and inactive calls. No cut-off for these calls is given here.
Key:
[1] = Reduction in cMyc expression in human COLO 320HSR cells incubated for 24 hrs by HTRF assay; type: functional, cell-based
[2] = Clearance in Han Wistar rat at 0.54 mg/kg, iv by LC-MS/MS analysis; type: ADME, organism-based; conditions: in vivo
[3] = Half life in Han Wistar rat at 0.54 mg/kg, iv by LC-MS/MS analysis; type: ADME, organism-based; conditions: in vivo
[4] = Volume of distribution at steady state in Han Wistar rat at 0.54 mg/kg, iv by LC-MS/MS analysis; type: ADME, organism-based; conditions: in vivo, read-out: Vdss
[5] = Permeability of the compound across artificial membrane by AMP assay; type: ADME; conditions: PAMPA; read-out: permeability
[6] = Clearance in Han Wistar rat at 1 mg/kg, iv by LC-MS/MS analysis; type: ADME, organism-based; conditions: in vivo
[7] = Half life in Han Wistar rat at 1 mg/kg, iv by LC-MS/MS analysis; type: ADME, organism-based; conditions: in vivo
[8] = Volume of distribution at steady state in Han Wistar rat at 1 mg/kg, iv by LC-MS/MS analysis; type: ADME, organism-based; conditions: in vivo, read-out: Vdss
[9] = Clearance in CD1 mouse at 0.51 mg/kg, iv by LC-MS/MS analysis; type: ADME, organism-based; conditions: in vivo
[10] = Half life in CD1 mouse at 0.51 mg/kg, iv by LC-MS/MS analysis; type: ADME, organism-based; conditions: in vivo
[11] = Volume of distribution at steady state in CD1 mouse at 0.51 mg/kg, iv by LC-MS/MS analysis; type: ADME, organism-based; conditions: in vivo, read-out: Vdss
[12] = Cmax in CD1 mouse at 5 mg/kg, po by LC-MS/MS analysis; type: ADME, organism-based; design: dose 5 mg/kg, route po; conditions: in vivo
[13] = AUC (0 to inf) in CD1 mouse at 5 mg/kg, po by LC-MS/MS analysis; type: ADME, organism-based; design: time infinity, dose 5 mg/kg, route po; conditions: in vivo
[14] = Oral bioavailability in CD1 mouse at 5 mg/kg by LC-MS/MS analysis; type: ADME, organism-based; conditions: in vivo
[15] = Plasma protein binding in CD1 mouse at 5 mg/kg, po by LC-MS/MS analysis; type: ADME, organism-based; conditions: read-out: PPB (converted)
[16] = Cmax in Han Wistar rat at 2 mg/kg, po by LC-MS/MS analysis; type: ADME, organism-based; design: dose 2 mg/kg, route po; conditions: in vivo
[17] = AUC (0 to inf) in Han Wistar rat at 2 mg/kg, po by LC-MS/MS analysis; type: ADME, organism-based; design: time infinity, dose 2 mg/kg, route po; conditions: in vivo
[18] = Oral bioavailability in Han Wistar rat at 2 mg/kg by LC-MS/MS analysis; type: ADME, organism-based; conditions: in vivo
[19] = Plasma protein binding in Han Wistar rat at 2 mg/kg, po by LC-MS/MS analysis; type: ADME, organism-based; conditions: read-out: PPB (converted)
[20] = system: COLO-320-HSR; assay: Decrease in c-MYC protein level in human COLO 320HSR cells incubated for 24 hrs by Western blot analysis; type: functional, cell-based
[21] = system: COLO-320-HSR; assay: Decrease in MYC mRNA level in human COLO 320HSR cells incubated for 6 hrs by qRT-PCR analysis; type: functional, cell-based
[22] = system: COLO-320-HSR; assay: Effect on MCL-1 protein level in human COLO 320HSR cells incubated for 24 hrs by Western blot analysis; type: functional, cell-based
[23] = Decrease in nascent MYC mRNA level in human COLO 320HSR cells at 2 uM incubated for 75 mins by qRT-PCR analysis; type: functional; conditions: 1.25 h
[24] = Distribution coefficient, logD of the compound by chromatography; type: physicochemical; conditions: octanol/water
[25] = Solubility by CLND assay; type: physicochemical
[26] = Clearance in Han Wistar rat at 1.9 mg/kg, iv by LC-MS/MS analysis; type: ADME, organism-based; conditions: in vivo
[27] = Half life in Han Wistar rat at 1.9 mg/kg, iv by LC-MS/MS analysis; type: ADME, organism-based; conditions: in vivo
[28] = Volume of distribution at steady state in Han Wistar rat at 1.9 mg/kg, iv by LC-MS/MS analysis; type: ADME, organism-based; conditions: in vivo, read-out: Vdss
[29] = AUC (0 to t) in Han Wistar rat at 5.3 mg/kg, po by LC-MS/MS analysis; type: ADME, organism-based; design: dose 5.3 mg/kg, route po; conditions: in vivo
[30] = Oral bioavailability in Han Wistar rat at 5.3 mg/kg by LC-MS/MS analysis; type: ADME, organism-based; conditions: in vivo

Compound	EC50 [1] [nM]	further results
CCn1ccc(Cn2c(-c3ccc(N4CCCC4C)nc3)nc3ccccc32)n1 (stereo not given)	1580	–
CCOCCn1c(-c2ccc(N3CCC[C@H]3C)nc2)nc2ccccc21	12600	–
CNC(=O)c1cc(OC)c2c(c1)nc(-c1ccc(N3[C@@H](C)CC[C@@H]3C)nc1)n2C[C@@H]1CNCCO1	–	Papp [5]: 1.3 ×10⁻⁶ cm/s
CCN(CC)c1ccc(-c2nc3c(C(N)=O)cccc3n2Cc2ccn(CC)n2)cn1	2000	–
CCc1nc(Cn2c(-c3ccc(N(CC)CC)nc3)nc3ccccc32)cs1	1580	–
CCNc1ccc(-c2nc3ccccc3n2Cc2ccn(CC)n2)cn1	39800	–
CCN(CC)c1ccc(-c2nc3ccccc3n2Cc2cc[nH]n2)cn1	2510	–
CCN(CC)c1ccc(-c2nc3ccccc3n2Cc2cccc(C)n2)cn1	2510	–
CCN(CC)c1ccc(-c2nc3c(C#N)cccc3n2Cc2ccn(CC)n2)cn1	1000	–
CNC(=O)c1cc(OC)c2c(c1)nc(-c1ccc(N3[C@@H](C)CC[C@@H]3C)nc1)n2C[C@@H]1CN(C)CCO1	–	Papp [5]: 22 ×10⁻⁶ cm/s
CCN(CC)c1ccc(-c2nc3ccccc3n2CCOC)cn1	2510	–
CCOCCn1c(-c2ccc(N3[C@H](C)CC[C@@H]3C)nc2)nc2ccccc21	2000	–
C[C@@H]1CN(C)C[C@H](Cn2c(-c3ccc(N4[C@@H](C)CC[C@@H]4C)nc3)nc3ccccc32)O1	20000	chromatographic logD [24]: 5.5
CCN(CC)c1ccc(-c2nc3cc(OC)ccc3n2Cc2ccn(CC)n2)cn1	794	–
CCCCn1c(-c2ccc(N(CC)CC)nc2)nc2ccccc21	12600	–
CCN(CC)c1ccc(-c2nc3cccc(C#N)c3n2Cc2ccn(C)n2)cn1	2000	–
CCOCCn1c(-c2ccc(N3CCC[C@@H]3C)nc2)nc2ccccc21	1260	–
CCN(CC)c1ccc(-c2nc3cccc(C)c3n2Cc2ccn(C)n2)cn1	1000	–
CCN(CC)c1ccc(-c2nc3ccccc3n2Cc2ccn(CC)n2)cc1	25100	–
CCN(CC)c1ccc(-c2nc3ccccc3n2CCc2ccn(CC)n2)cn1	25100	–
CCN(C)c1ccc(-c2nc3ccccc3n2Cc2ccn(CC)n2)cn1	3980	–
C[C@H]1CN(C)C[C@@H](Cn2c(-c3ccc(N4[C@@H](C)CC[C@@H]4C)nc3)nc3ccccc32)O1	1580	chromatographic logD [24]: 5.6
CCCN(CC)c1ccc(-c2nc3ccccc3n2Cc2ccn(CC)n2)cn1	1580	–
CCN(CC)c1ccc(-c2cc3ccccc3n2Cc2ccn(CC)n2)cn1	7940	–
CCNC(=O)c1cc(OC)c2c(c1)nc(-c1ccc(N3[C@@H](C)CC[C@@H]3C)nc1)n2C[C@@H]1CNCCO1	–	Papp [5]: 1.9 ×10⁻⁶ cm/s
CCn1ccc(Cn2c(-c3ccc(N4CCCC4)nc3)nc3ccccc32)n1	5010	–
CCN(CC)c1ccc(-c2nc3cc(C#N)ccc3n2Cc2ccn(CC)n2)cn1	1000	–
CCN(CC)c1ccc(-c2nc3cc(C(=O)N(C)C)ccc3n2CCOC(C)(C)C)cn1	3980	–
CCc1ncc(Cn2c(-c3ccc(N(CC)CC)nc3)nc3ccccc32)o1	3160	–

Second part, led by results:

EC50 [1] [nM]	Compound	further results
25.1	COc1cccc2nc(-c3ccc(N4[C@@H](C)CC[C@@H]4C)nc3)n(Cc3ccn(C)n3)c12	clearance [2]: 190 mL/min/kg; half-life [3]: 1 h; Vd [4]: 6 L/kg
398	CCOc1cccc2nc(-c3ccc(N(CC)CC)nc3)n(Cc3ccn(C)n3)c12	–
158	CCN(CC)c1ccc(-c2nc3cc(C(N)=O)ccc3n2CCOC(C)(C)C)cn1	–
63.1	COc1cc(C(N)=O)c(F)c2nc(-c3ccc(N4CCC[C@@H]4C)nc3)n(C[C@@H]3CN(C)CCO3)c12	clearance [6]: 14 mL/min/kg; half-life [7]: 6.4 h; Vd [8]: 2.5 L/kg; clearance [9]: 24 mL/min/kg; half-life [10]: 0.55 h; Vd [11]: 0.88 L/kg; Cmax [12]: 380 ng/mL; AUC(0-inf) [13]: 1240 ng·h/mL; bioavailability [14]: 43%; fraction unbound [15]: 0.03; Cmax [16]: 500 ng/mL; AUC(0-inf) [17]: 4300 ng·h/mL; bioavailability [18]: 100%; fraction unbound [19]: 0.04
63.1	CNC(=O)c1cc(OC)c2c(nc(-c3ccc(N4[C@@H](C)CC[C@@H]4C)nc3)n2C[C@@H]2CN(C)CCO2)c1F	clearance [6]: 11 mL/min/kg; half-life [7]: 4.3 h; Vd [8]: 2.8 L/kg; Cmax [12]: 205 ng/mL; AUC(0-inf) [13]: 784 ng·h/mL; bioavailability [14]: 26%; fraction unbound [15]: 0.07; Cmax [16]: 180 ng/mL; AUC(0-inf) [17]: 3160 ng·h/mL; bioavailability [18]: 83%; fraction unbound [19]: 0.05
316	CCN(CC)c1ccc(-c2nc3c(C)cccc3n2Cc2ccn(CC)n2)cn1	–
126	CCN(CC)c1ccc(-c2nc3cc(C(=O)NC)ccc3n2Cc2ccn(CC)n2)cn1	Activity [20]: Dose-dependent effect; Activity [21]: Dose-dependent effect; Activity [22]: inactive; inhibition at 2 µM [23]: 50%
251	CCN(CC)c1ccc(-c2nc3ccccc3n2Cc2ccn(C)n2)cn1	–
398	CCOCCn1c(-c2ccc(N(CC)CC)nc2)nc2ccccc21	–
251	CCOCCn1c(-c2ccc(N3[C@@H](C)CC[C@@H]3C)nc2)nc2ccccc21	chromatographic logD [24]: 6.4; Papp [5]: 54.5 ×10⁻⁶ cm/s; solubility kinetic [25]: 254 µM (≈ 92.6 µg/mL)
501	CCN(CC)c1ccc(-c2nc3ccccc3n2Cc2coc(C)n2)cn1	–
20	COc1cc(C(N)=O)c(F)c2nc(-c3ccc(N4[C@@H](C)CC[C@@H]4C)nc3)n(C[C@@H]3CN(C)CCO3)c12	–
25.1	CCOCCn1c(-c2ccc(N3[C@@H](C)CC[C@@H]3C)nc2)nc2cccc(OC)c21	–
631	CCN(CC)c1ccc(-c2nc3ccccc3n2Cc2ccn(CC)n2)cn1	–
126	COc1cccc2nc(-c3ccc(N4[C@@H](C)CC[C@@H]4C)nc3)n(C[C@@H]3CNCCO3)c12	chromatographic logD [24]: 4; clearance [26]: 35 mL/min/kg; half-life [27]: 5.1 h; Vd [28]: 6.3 L/kg; AUC(0-t) [29]: 1600 ng·h/mL; bioavailability [30]: 63%
200	CCN(CC)c1ccc(-c2nc3c(Cl)cccc3n2Cc2ccn(CC)n2)cn1	–
100	Cc1cccc2nc(-c3ccc(N4[C@@H](C)CC[C@@H]4C)nc3)n(Cc3ccn(C)n3)c12	chromatographic logD [24]: 7; Papp [5]: 64 ×10⁻⁶ cm/s; solubility kinetic [25]: 309 µM (≈ 124 µg/mL)
158	CCN(CC)c1ccc(-c2nc3cc(C(=O)NCC4CC4)ccc3n2CCOC(C)(C)C)cn1	–
79.4	CCN(CC)c1ccc(-c2nc3cccc(OC)c3n2Cc2ccn(C)n2)cn1	–
316	CCN(CC)c1ccc(-c2nc3ccccc3n2CCOC(C)(C)C)cn1	–
631	CCN(CC)c1ccc(-c2nc3cccc(NC)c3n2Cc2ccn(C)n2)cn1	–
200	CCN(CC)c1ccc(-c2nc3cc(C(=O)NCCO)ccc3n2CCOC(C)(C)C)cn1	–
251	CCN(CC)c1ccc(-c2nc3ccccc3n2CCOC(C)C)cn1	–
158	COc1cccc2nc(-c3ccc(N4[C@@H](C)CC[C@@H]4C)nc3)n(C[C@@H]3CNC[C@H](C)O3)c12	chromatographic logD [24]: 4.4
631	CCN(CC)c1ccc(-c2nc3cc(C)ccc3n2Cc2ccn(CC)n2)cn1	–
501	CCc1nc(Cn2c(-c3ccc(N(CC)CC)nc3)nc3ccccc32)co1	–
79.4	COc1cccc2nc(-c3ccc(N4[C@@H](C)CC[C@@H]4C)nc3)n(C[C@@H]3CN(C)C[C@H](C)O3)c12	chromatographic logD [24]: 6.8
79.4	COc1cc(C(N)=O)cc2nc(-c3ccc(N4[C@@H](C)CC[C@@H]4C)nc3)n(C[C@@H]3CN(C)CCO3)c12	–
